# In patent US20240209038A1, “TARGETING PIEZO1 TO TREAT INHERITED AND AGE-RELATED MACULAR DEGENERATIONS” (priority 2021, published 2024):
# No end group written: not given here.
# What was measured:
# primary porcine RPE = experiment: Live imaging of calcium influx (Fluo-4 NW) in polarized primary RPE; type: cell-based, pig; details: for cytosolic and nuclear calcium at baseline: RPE treated with stressor causing cholesterol and ceramide accumulation; for intracellular calcium spikes in RPE cultured on silica beads: RPE cultured on silica beads to simulate drusen
# Description: (§1) Primary adult RPE cultures. Polarized RPE monolayers from pig eyes were generated as described (Kaur et al., 2018; Tan et al., 2016; Toops et al., 2015; Toops et al., 2014). RPE on collagen-coated transwell filters form fully polarized monolayers within two weeks, develop trans-epithelial electrical resistances (TER) of ≥400 ohm·cm^2 and express RPE differentiation markers such as apical Na^+,K^+-ATPase and intracellular RPE65 (Toops et al., 2014).
# (§2) Intrinsic stressors to activate Piezo1. RPE monolayers were treated with the bisretinoid A2E to increase cholesterol and ceramide (Kaur et al., 2018; La Cunza et al., 2020; Tan et al., 2016; Toops et al., 2015), which act as intrinsic stressors that activate Piezo1.
# Extrinsic stressors to activate Piezo1. To simulate drusen-mediated mechanical stress, cells were cultured on collagen-coated filters layered with 500 nm diameter monodisperse silica microspheres (Cospheric SiO2MS-2.0 0.507 μm) at a density of 40 beads/cm^2 in a collagen (10 μg/cm^2) matrix.
# Drugs that modulate Piezo1 activity (Xiao, 2020). Yoda1 is a small molecule gating modifier that specifically potentiates Piezo1 mechanosensitivity and slows the inactivation kinetics with EC50 of ˜10-20 μM. It interacts with the […] domains of Piezo1 and thereby increases channel opening time. […] We treated primary RPE cultures for 6 hours with 10 μM Yoda1 (Sigma SML1558) for immunostaining/immunoblotting and biochemical experiments, or with 25 μM for 1-5 minutes for live imaging experiments. RPE cultures were treated with 500 nM GsMTx-4 (Tocris 4912100U) for 6 h.
# High-speed live-cell imaging. The Nikon CSU-X1 dual camera platform spinning disk confocal microscopy system will be used for live imaging of primary RPE cultures and mouse RPE flatmounts. Images will be analyzed using Imaris (Bitplane) (Kaur et al., 2018; Tan et al., 2016; Toops et al., 2015). If necessary, Delta Vision OMX-SR (GE Healthcare Life Sciences) with 3D structured illumination microscopy (3D-SIM) and ring-TIRF capabilities at UCSF's Nikon Imaging Center will be used for super-resolution imaging.
# Live imaging of calcium influx. For live imaging of calcium influx, primary porcine RPE grown on Transwell filters±A2E or grown on silica beads, and mouse RPE flatmounts were loaded with Fluo-4 NW (Invitrogen, F36206) for 30 min according to manufacturer's protocol. Excised Transwell filters or mouse RPE flatmounts were mounted onto a Warner chamber in the presence of Fluorobrite DMEM (Gibco, A1896701) supplemented with 1% FBS (ATCC, 30-2020), 1% NEAA (Corning, 25025CI), and 4 mM L-glutamine (Gibco, 25030081) and imaged using Nikon spinning disk confocal microscope with 60× oil immersion objective (1.49 NA). To increase or inhibit Piezo1 channel activity, Yoda1 (25 μM) or GsMTx-4 (5 μM) was added prior to live imaging. Apart from these drugs, preincubation with BAPTA-AM (Thermofisher) was used to determine the Ca^2+-dependence of nuclear and cytosolic signals.
# RPE [1] = experiment: Cholesterol and ceramide accumulation in the RPE; type: cell-based; details: FIGS. 3A and 3B
# Experimental: as §2
# RPE [2] = details: cited from earlier work; for cholesterol and ceramide accumulation in RPE: Tan et al., 2016
# RPE [3] = experiment: Complement-mediated mitochondrial fragmentation in RPE (mito-RFP live imaging, A2E + 10% NHS); type: cell-based; details: A2E-treated RPE exposed to 10% NHS; Simvastatin 5 μM 16 h, T0901317 1 μM 16 h, desipramine 10 μM 3 h
# Experimental: (§3) FIGS. 7A-7B. 7A, 3D reconstruction from live imaging of mitochondrial volumes in mock transfected RPE transduced with mito-RFP, treated with A2E and exposed to 10% NHS to induce complement attack. RPE were treated with Simvastatin (5 μM, 16 h), T0901317 (1 μM, 16 h) or desipramine (10 μM, 3 h) prior to imaging. […] 7B, Quantification of fragmented mitochondria per cell from images in A. Mean±SEM, ***, p<0.0001, t-test. C, H3K9me3 (red) immunostaining in retinal cryosections from Abca4−/− mice treated with vehicle or […] desipramine i.p.
# Abca4−/− mice = experiment: Nuclear H3K9me3 in RPE of Abca4−/− mice after drug administration; type: in vivo, mouse; details: 10 mg/kg i.p., three times/week for four weeks, compared to vehicle-treated mice
# Experimental: as §3
# (§4) Mice. There are no mouse models that adequately reproduce AMD phenotypes. We therefore used models that best recapitulate the phenotype of interest. We used pigmented wild-type (129S1/SvlmJ) and Abca4^−/− mice (Jackson Labs) because we and others have reported that Abca4^−/− mice RPE show an age-dependent accumulation of cholesterol and ceramide (Kaur et al., 2018; Lenis et al., 2017; Tan et al., 2016; Toops et al., 2015), which are known to prolong Piezo1 activation (Ridone et al., 2020, Shi et al., 2020).
# Antibodies. All antibodies used were validated for specificity using the relevant IgG controls, cell lysates lacking the antigen, or by blocking peptides. […]
# Piezo1 [4] = details: Suchyna, et al. Nature 430:235-240, 2004; cited from earlier work
# [5] = test system: polarized primary RPE cultures; experiment: Live imaging of actin dynamics (SiR-actin) in polarized primary RPE cultures; type: cell-based, pig
# Experimental: (§5) FIGS. 4A-4E. 4A, 3D reconstructions; 4B, quantitation of mitochondrial volumes from Tom20 staining in primary RPE cultures treated or not with Yoda1 and GsMTx-4. Warmer colors indicate healthy mitochondria and cooler colors indicate fragmented mitochondria. Mean±SEM; *** p<0.0001, unpaired t-test. 4C, H3K9me3 (red; merge with DAPI appears pink) immunostaining in primary RPE cultured on collagen or collagen with silica beads±GSMTx-4 (500 nM, 3 h). 4D, Actin labeling in live primary RPE cultures. Arrow heads: actin “knots” that indicate areas of actin polymerization prior to actomyosin contraction and cell extrusion. 4E, quantitation of actin staining intensity in primary RPE cultured on collagen or collagen with beads and treated with Yoda1 and/or GsMTx-4. Mean±SEM, *, p<0.05; *** p<0.001, unpaired t-test.
# Primary adult RPE cultures. Polarized RPE monolayers from pig eyes were generated as described (Kaur et al., 2018; Tan et al., 2016; Toops et al., 2015; Toops et al., 2014). RPE on collagen-coated transwell filters form fully polarized monolayers within two weeks, develop trans-epithelial electrical resistances (TER) of ≥400 ohm·cm^2 and express RPE differentiation markers such as apical Na^+,K^+-ATPase and intracellular RPE65 (Toops et al., 2014). […]
# Piezo1 [6] = target: Piezo1 (Mus musculus, UniProt E2JF22); details: whole cell recordings as described in Bae et al., Biochemistry 50:6295-300, 2011; range printed with mixed units (nM to μM); read-out: Kd, reversible block of Piezo1 activation; cited from earlier work
# primary polarized RPE [7] = experiment: Mitochondrial volumes/fragmentation from Tom20 staining in primary RPE cultures; type: cell-based, pig
# Experimental: as §5, §1
# (§6) Drugs that modulate Piezo1 activity (Xiao, 2020). […]
# [8] = test system: Abca4−/− mice RPE flatmounts; experiment: Live imaging of calcium influx (Fluo-4 NW) in mouse RPE flatmounts; type: cell-based; details: preliminary live imaging
# Description: as §4
# (§7) Live imaging of mouse RPE flatmounts. Tissue from freshly harvested eyes will be mounted onto a Warner chamber in the presence of Fluorobrite DMEM (Gibco, A1896701) supplemented with 1% FBS (ATCC, 30-2020), 1% NEAA (Corning, 25025CI), and 4 mM L-glutamine (Gibco, 25030081) and imaged immediately using a 60× oil immersion objective (1.49 NA).
# Live imaging of calcium influx. For live imaging of calcium influx, primary porcine RPE grown on Transwell filters±A2E or grown on silica beads, and mouse RPE flatmounts were loaded with Fluo-4 NW (Invitrogen, F36206) for 30 min according to manufacturer's protocol. […]
# Piezo2 = details: specificity for Piezo1; cited from earlier work
# Piezo1 [9] = details: Xiao, 2020; read-out: EC50, potentiates Piezo1 mechanosensitivity and slows the inactivation kinetics; cited from earlier work
# [10] = test system: Abca4−/− mice RPE flatmounts; experiment: Live imaging of actin (SiR-actin) in mouse RPE flatmounts; type: cell-based; details: freshly isolated Abca4−/− mice RPE flatmounts compared to age-matched wild types
# Description: FIGS. 5A-5C. Validation of the Abca4−/− mouse model to study the role of Piezo1 in RPE dysfunction. 5A, H3K9me3 (red) immunostaining in 8-month-old wild type and Abca4−/− mouse RPE flatmounts. 5B, reconstruction of mitochondrial volumes from Tom20 staining in wild type and Abca4−/− mouse RPE flatmounts. Warmer colors indicate healthy mitochondria and cooler colors indicate fragmented mitochondria. 5C, Live imaging of mouse RPE flatmounts with FluoNW (green) and SiR-actin (red).
# as §7
# Live imaging of actin dynamics was performed using SiR-actin (1 μM, 30 min) and FLIPPER-TR plasma membrane probe in RPE with A2E or grown on silica beads±Yoda1±GsMTx-4
# primary polarized RPE [11] = experiment: H3K9me3 immunostaining in primary polarized RPE; type: cell-based, pig; details: prolonged piezo1 activation
# Experimental: as §5, §1, §6
# Piezo1 [12] = target: T1, Piezo1 (Homo sapiens, UniProt Q92508); experiment: Piezo1 currents in whole cell-clamped primary RPE (patch-clamp/high-speed pressure clamp); type: cell-based; details: depletion of membrane cholesterol
# T1 construct: Dissociated RPE cells from human donors were whole cell-clamped; endogenous in cells; host or cells: dissociated RPE cells from human donors
# Description: FIGS. 3A-3D. Cholesterol and ceramide modulate Piezo1 activation in the RPE. 3A, Stills (at 130 sec and 300 sec) from Fluo4NW live imaging (green); 3B, quantification. In the results provided in FIGS. 3A and 3B, U18 increased cholesterol and ceramide. Mean±SEM, ** p<0.005, unpaired t-test. 3C, Representative traces of whole-cell currents in primary RPE recorded in a typical patch-clamp/HSPC experiment (40 mV holding potential, 25 mm Hg pressure step for 500 mSec). Black trace—control cells; red trace—RPE treated with b-cyclodextrin to deplete membrane cholesterol. 3D, Quantification of results in C. Mean±SEM, n=4 cells.
# Electrophysiology. Dissociated RPE cells from human donors were whole cell-clamped. Steps of positive pressure (2-30 mm Hg) were applied through the patch pipette using high-speed pressure clamp (ALA Instruments) or the cells stimulated with msec indentations of a blunt pipette tip (Physik Instrumente) to evoke the mechanosensitive current. The Piezo1-dependent current was confirmed using GsMTx-4 (Lapajne et al., 2020).
# [13] = in vitro and in vivo (Kaur et al., 2018; Tan et al., 2016; Toops et al., 2015)
# Piezo1 (Mus musculus, UniProt E2JF22), sequence (E2JF22 whole entry, the tested form may be a part): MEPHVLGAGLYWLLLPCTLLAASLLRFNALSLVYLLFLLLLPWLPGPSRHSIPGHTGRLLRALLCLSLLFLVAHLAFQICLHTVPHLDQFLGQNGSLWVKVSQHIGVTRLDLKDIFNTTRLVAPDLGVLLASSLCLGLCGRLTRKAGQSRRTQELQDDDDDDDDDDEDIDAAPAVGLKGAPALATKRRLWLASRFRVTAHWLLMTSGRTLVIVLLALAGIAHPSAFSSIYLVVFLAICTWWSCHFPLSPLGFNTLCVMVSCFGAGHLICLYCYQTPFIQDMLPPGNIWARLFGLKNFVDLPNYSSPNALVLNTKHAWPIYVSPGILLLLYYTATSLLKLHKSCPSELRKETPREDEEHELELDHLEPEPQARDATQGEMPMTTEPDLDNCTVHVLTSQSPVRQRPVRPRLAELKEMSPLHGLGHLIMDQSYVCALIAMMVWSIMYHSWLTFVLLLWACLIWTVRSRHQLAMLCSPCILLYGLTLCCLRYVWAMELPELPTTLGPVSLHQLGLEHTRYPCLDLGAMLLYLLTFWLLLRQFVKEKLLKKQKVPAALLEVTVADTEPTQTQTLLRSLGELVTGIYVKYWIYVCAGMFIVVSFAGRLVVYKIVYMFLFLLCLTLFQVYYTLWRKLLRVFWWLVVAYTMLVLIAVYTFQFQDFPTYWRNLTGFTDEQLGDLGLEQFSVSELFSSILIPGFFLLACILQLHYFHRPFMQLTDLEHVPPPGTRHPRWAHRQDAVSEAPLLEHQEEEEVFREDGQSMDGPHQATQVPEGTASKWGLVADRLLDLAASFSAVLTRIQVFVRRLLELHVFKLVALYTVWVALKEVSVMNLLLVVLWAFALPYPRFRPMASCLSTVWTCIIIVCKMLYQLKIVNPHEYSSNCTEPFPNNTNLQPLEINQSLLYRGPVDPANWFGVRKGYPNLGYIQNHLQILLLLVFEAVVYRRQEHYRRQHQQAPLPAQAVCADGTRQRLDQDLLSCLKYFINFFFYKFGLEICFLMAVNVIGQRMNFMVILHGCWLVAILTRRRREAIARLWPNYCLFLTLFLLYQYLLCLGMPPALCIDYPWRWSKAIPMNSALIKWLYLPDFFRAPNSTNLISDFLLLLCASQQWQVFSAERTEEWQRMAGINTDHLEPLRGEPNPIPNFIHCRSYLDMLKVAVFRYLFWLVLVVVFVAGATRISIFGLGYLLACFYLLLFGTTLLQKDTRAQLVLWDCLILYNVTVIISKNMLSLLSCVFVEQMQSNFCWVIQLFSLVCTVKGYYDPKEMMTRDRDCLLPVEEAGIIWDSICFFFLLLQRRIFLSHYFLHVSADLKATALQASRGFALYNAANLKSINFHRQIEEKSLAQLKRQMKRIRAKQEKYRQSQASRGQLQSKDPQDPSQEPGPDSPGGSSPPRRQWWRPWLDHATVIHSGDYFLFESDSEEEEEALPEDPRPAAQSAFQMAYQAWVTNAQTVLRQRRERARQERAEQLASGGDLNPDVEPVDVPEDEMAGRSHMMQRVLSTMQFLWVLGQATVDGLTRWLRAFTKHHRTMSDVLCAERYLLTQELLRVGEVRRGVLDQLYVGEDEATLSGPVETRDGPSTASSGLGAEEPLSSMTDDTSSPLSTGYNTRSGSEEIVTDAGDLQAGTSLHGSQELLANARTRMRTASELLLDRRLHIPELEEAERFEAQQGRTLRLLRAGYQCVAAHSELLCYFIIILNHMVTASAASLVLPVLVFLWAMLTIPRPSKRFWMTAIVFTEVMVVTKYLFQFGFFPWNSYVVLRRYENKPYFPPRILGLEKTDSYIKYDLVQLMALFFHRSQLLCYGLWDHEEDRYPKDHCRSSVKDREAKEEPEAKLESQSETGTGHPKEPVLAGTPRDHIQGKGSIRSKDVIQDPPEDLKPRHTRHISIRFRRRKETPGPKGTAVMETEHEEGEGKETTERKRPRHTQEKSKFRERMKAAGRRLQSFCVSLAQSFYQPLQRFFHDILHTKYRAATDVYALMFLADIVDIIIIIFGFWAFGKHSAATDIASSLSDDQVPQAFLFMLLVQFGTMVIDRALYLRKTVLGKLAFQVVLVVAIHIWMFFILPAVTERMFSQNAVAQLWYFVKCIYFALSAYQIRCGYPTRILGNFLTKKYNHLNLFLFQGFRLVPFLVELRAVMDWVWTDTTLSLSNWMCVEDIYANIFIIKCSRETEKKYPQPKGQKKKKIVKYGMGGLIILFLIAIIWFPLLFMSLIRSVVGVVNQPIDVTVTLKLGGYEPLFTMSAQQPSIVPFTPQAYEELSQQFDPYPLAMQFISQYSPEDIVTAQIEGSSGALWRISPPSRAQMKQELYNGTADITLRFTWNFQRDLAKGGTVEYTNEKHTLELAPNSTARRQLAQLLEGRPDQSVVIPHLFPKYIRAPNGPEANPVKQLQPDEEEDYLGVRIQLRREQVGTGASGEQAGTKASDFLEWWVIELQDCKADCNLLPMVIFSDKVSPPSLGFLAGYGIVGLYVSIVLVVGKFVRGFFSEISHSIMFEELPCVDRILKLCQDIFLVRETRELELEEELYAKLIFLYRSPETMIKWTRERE
# T1 sequence (Q92508 whole entry): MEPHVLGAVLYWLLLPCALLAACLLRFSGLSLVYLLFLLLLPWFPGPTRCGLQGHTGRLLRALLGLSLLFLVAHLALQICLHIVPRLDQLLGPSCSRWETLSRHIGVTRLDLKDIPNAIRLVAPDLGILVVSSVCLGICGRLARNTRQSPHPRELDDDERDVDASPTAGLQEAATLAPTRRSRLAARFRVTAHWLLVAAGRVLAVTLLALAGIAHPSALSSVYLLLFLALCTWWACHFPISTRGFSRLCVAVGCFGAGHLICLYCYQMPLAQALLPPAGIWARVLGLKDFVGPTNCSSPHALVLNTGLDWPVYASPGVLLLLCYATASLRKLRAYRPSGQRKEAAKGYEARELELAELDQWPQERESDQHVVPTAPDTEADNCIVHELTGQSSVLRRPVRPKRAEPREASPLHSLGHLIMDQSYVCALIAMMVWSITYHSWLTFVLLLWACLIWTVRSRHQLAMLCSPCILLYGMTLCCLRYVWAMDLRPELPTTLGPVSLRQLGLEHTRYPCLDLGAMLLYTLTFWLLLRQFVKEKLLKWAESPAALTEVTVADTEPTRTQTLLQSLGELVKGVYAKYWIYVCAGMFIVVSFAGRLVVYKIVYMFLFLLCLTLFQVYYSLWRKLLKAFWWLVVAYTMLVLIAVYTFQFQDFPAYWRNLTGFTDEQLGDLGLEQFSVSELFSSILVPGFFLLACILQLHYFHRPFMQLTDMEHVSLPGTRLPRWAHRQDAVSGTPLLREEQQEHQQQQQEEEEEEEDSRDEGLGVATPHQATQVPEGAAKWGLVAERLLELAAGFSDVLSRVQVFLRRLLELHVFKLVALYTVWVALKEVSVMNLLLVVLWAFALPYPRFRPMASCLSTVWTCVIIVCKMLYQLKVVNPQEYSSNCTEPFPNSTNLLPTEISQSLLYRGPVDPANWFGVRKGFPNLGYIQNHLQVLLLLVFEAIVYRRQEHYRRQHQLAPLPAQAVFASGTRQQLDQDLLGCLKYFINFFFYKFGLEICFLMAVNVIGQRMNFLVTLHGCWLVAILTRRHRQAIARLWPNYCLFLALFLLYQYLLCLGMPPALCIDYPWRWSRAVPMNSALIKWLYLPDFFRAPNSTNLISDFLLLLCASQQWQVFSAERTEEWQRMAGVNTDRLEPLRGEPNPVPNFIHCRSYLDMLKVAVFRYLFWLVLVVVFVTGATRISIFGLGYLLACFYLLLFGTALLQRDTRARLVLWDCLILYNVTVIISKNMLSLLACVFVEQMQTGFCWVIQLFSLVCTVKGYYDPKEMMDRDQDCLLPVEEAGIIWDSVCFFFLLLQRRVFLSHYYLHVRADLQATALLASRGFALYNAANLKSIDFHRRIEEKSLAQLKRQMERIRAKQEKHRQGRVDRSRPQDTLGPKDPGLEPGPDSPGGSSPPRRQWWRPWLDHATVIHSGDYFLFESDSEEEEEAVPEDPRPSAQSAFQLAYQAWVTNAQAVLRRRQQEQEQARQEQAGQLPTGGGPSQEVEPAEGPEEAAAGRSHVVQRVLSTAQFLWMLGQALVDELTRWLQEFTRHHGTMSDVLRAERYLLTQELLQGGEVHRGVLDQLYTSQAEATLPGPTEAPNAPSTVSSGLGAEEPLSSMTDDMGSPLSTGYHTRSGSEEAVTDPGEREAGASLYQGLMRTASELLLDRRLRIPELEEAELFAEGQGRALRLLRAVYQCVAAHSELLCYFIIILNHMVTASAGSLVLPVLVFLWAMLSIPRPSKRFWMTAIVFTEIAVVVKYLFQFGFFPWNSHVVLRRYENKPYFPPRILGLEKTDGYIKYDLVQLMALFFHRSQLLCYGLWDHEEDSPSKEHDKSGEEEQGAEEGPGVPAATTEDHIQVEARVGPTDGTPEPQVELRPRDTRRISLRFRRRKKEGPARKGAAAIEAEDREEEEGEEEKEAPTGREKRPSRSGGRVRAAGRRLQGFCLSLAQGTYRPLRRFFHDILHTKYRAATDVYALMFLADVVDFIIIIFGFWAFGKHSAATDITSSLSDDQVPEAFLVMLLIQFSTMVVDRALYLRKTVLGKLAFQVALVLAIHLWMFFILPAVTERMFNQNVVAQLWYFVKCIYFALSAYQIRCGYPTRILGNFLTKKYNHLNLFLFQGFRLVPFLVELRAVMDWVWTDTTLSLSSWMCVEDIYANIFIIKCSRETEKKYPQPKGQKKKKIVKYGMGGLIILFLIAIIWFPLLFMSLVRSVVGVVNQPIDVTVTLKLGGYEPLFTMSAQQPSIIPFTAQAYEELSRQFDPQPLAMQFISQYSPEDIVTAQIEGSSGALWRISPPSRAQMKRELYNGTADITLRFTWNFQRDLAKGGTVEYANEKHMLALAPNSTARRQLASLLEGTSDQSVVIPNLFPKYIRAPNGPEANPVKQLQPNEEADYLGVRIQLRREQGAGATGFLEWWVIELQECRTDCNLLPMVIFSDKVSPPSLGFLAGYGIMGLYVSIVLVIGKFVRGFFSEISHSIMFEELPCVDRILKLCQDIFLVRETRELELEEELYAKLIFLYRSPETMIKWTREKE
compound,measurement,setting,value
CCN(CC)CCO[C@H]1CC[C@@]2(C)C(=CC[C@@H]3[C@@H]2CC[C@]2(C)C(=O)CC[C@@H]32)C1 [U18666A],cytosolic and nuclear calcium at baseline,primary porcine RPE,prolonged cytosolic and nuclear calcium even at baseline
same,calcium levels after Yoda1 treatment,"primary porcine RPE; RPE+U18 versus control RPE, where they returned to baseline within minutes",remained high in all cellular compartments
same,cholesterol and ceramide in RPE,RPE [1],increased
same,cholesterol and ceramide accumulation in RPE,RPE [2],cause cholesterol and ceramide accumulation
CNCCCN1c2ccccc2CCc2ccccc21 [desipramine],complement-mediated mitochondrial fragmentation in RPE,RPE [3],protect
same,nuclear H3K9me3 in the RPE,Abca4−/− mice,restored nuclear H3K9me3
same,lipofuscin-induced ceramide accumulation in the RPE,RPE [2]; [13],decreased
"GsMTx4-L: L enantiomeric form of GsMTx4 (GCLEFWWKCNPNDDKCCRPKLKCSKLFKLCNFSF; ends and bridges not checked; cysteine pairing not given here; UniProt Q7YT39 47-80, looked up)","effectiveness at blocking Piezo1 activation, L- versus D-enantiomer",Piezo1 [4],equally effective
CC1=C(/C=C/C(C)=C/C=C/C(C)=C/c2cc(/C=C/C=C(C)/C=C/C3=C(C)CCCC3(C)C)cc[n+]2CCO)C(C)(C)CCC1 [A2E],cytosolic and nuclear calcium at baseline,primary porcine RPE,prolonged cytosolic and nuclear calcium even at baseline
same,cholesterol and ceramide accumulation in RPE,RPE [2],cause cholesterol and ceramide accumulation
GsMTx-4,actin accumulation at cell-cell junctions,[5],prevented
same,intracellular calcium spikes in RPE cultured on silica beads,primary porcine RPE,decreased
same,Kd,Piezo1 [6],155 to 2000 nM
same,mitochondrial fragmentation,primary polarized RPE [7],protected RPE mitochondria
Clc1cccc(Cl)c1CSc1nnc(-c2cnccn2)s1 [Yoda1],actin accumulation at cell-cell junctions,[5],caused rapid actin accumulation at cell-cell junctions
same,calcium influx in freshly isolated RPE flatmounts,[8],increased calcium influx
same,activation of Piezo2,Piezo2,does not activate Piezo2
same,calcium influx in the RPE,"primary porcine RPE; 25 μM, 1 min, RPE on collagen, live imaging",induces a rapid nuclear calcium influx within seconds
same,intracellular calcium spikes in RPE cultured on silica beads,primary porcine RPE,further potentiated
same,EC50,Piezo1 [9],10 to 20 µM
same,actin intensity in RPE flatmounts,[10],increased actin intensity
same,mitochondrial fragmentation,primary polarized RPE [7],mitochondrial fragmentation
same,nuclear H3K9me3,primary polarized RPE [11],loss of nuclear H3K9me3
cyclodextrin,peak current amplitudes of Piezo1 currents,Piezo1 [12],drastically decreased
O=S(=O)(c1ccccc1)N(CC(F)(F)F)c1ccc(C(O)(C(F)(F)F)C(F)(F)F)cc1 [T0901317],complement-mediated mitochondrial fragmentation in RPE,RPE [3],protect
same,lipofuscin-induced cholesterol accumulation in the RPE,RPE [2]; [13],decreased
